Experiments:
[1] = system: SPI1 type III protein secretion system (SopE-Bla secretion); experiment: Primary assay: Type III protein secretion of the chimeric SopE-Bla polypeptide by Salmonella enterica (nitrocefin hydrolysis); format: cell-based; conditions: read-out: SopE IC50(uM)
Excerpt: Primary assay: Type III protein secretion of the chimeric SopÉ-Bla polypeptide by Salmonella enterica. This procedure is a cell-based assay that measures the type III-dependent secretion by Salmonella enterica of a plasmid-encoded chimeric polypeptide whose synthesis can be regulated, and which is endowed with an enzymatic activity that can be monitored calorimetrically by hydrolysis of a substrate that is unable to penetrate into the bacterial cytoplasm within the time constraints of the reaction. Thus, the colorimetric reaction is not influenced by SopÉ-Bla polypeptide in the bacterial cytoplasm. Instead, it effectively measures the amount of polypeptide that has been secreted from the S. enterica cytoplasm to the extracellular medium via type III system protein secretion.
The SopÉ-Bla recombinant polypeptide consists of two functionally distinct domains spliced together. The N-terminus domain is encoded by a polynucleotide region specifying the signal for type III secretion of the SopE polypeptide of S. enterica, an effector of the SPI1 type III protein secretion system. The C-terminus domain of SopÉ-Bla consists of a 263 amino acid peptide sequence that corresponds to the TEM-1 β-lactamase expressed by plasmid pBR322 but without its N-terminal signal sequence. The TEM-1 β-lactamase part of the SopÉ-Bla chimeric polypeptide is used as a reporter enzyme. It is capable of hydrolyzing nitrocefin resulting in a product whose accumulation can be monitored by colorimetric detection. The secretion of the SopÉ-Bla chimeric polypeptide from the cytoplasm to the extracellular medium is dependent on type III protein secretion.
For this procedure, cells grown under conditions known to favor a functional SPI1 secretion system are induced for expression of the SopÉ-Bla protein and grown either in the presence or in the absence of putative inhibitors for determined time. Nitrocefin is then added to the various cultures and its hydrolysis are used for quantitation. An inhibitor of Type III protein secretion is generally a compound that reduces the signal of the enzymatic reaction by decreasing the amount of SopÉ-Bla secreted into the extracellular medium.

[2] = system: SPI1 type III protein secretion system (SipB secretion); experiment: Secondary assay: Type III-dependent protein secretion of the SipB polypeptide by S. enterica (immunoblot); format: cell-based; conditions: Salmonella enterica, read-out: SipB IC50(uM)
Method: Secondary assay: Type III-dependent protein secretion of the SipB polypeptide by S. enterica. The SipB protein of S. enterica is another effector of the SPI1 type III protein secretion system from S. enterica. In this cell-based procedure, the Type III-dependent secretion of SipB from the bacterial cytoplasm to the extracellular medium was measured through its reactivity with a cognate mouse monoclonal.
Salmonella enterica cells growing either in the presence or in the absence of inhibitors are induced for the production of SipB. Following an established period of growth the cells are sedimented and the amount of SipB present in the supernatant is quantified with a scanning imager following application of immunoblot techniques. Detection may employ an anti-SipB mouse monoclonal antibody (e.g., obtained from Jorge Galan, SUNY at Stony Brook, N.Y.) followed by treatment with commercially available sheep anti-mouse polyclonal antibody conjugated with horseradish peroxidase. Thereafter the membrane is treated with a peroxidase chemiluminescent substrate and exposed to film for an appropriate exposure time. Inhibition may be measured relative to untreated controls.

| Compound | IC50 [1] | IC50 [2] |
| --- | --- | --- |
| O=C(Nc1cc(-c2cccc3ccccc23)cn(C(CSCc2ccccc2)C(=O)O)c1=O)c1ccc(C(F)(F)F)cc1 (stereo in doubt) [Compound 16, (R)-3-Benzylsulfanyl-2-[5-naphthalen-1-yl-2-oxo-3-(4-trifluoromethyl-benzoylamino)-2H-pyridin-1-yl]propionic acid] | 6.4 µM | > 100 µM |
| O=C(Nc1cc(-c2ccc(-c3ccccc3)cc2)cn([C@@H](Cc2ccccc2)C(=O)O)c1=O)c1ccc(C(F)(F)F)cc1 [Compound 2, (S)-2-[5-Biphenyl-4-yl-2-oxo-3-(4-trifluoromethylbenzoylamino)-2H-pyridin-1-yl]-3-phenylpropionic acid] | 9.3 µM | > 100 µM |
| O=C(Nc1cc(-c2ccc3ccccc3c2)cn([C@@H](Cc2ccccc2)C(=O)O)c1=O)c1ccc(C(F)(F)F)cc1 [Compound 3, (S)-2-[5-Naphthalen-2-yl-2-oxo-3-(4-trifluoromethylbenzoylamino)-2H-pyridin-1-yl]-3-phenylpropionic acid] | 28.5 µM | > 100 µM |
| O=C(Nc1cc(-c2cncnc2)cn([C@@H](Cc2ccccc2)C(=O)O)c1=O)c1ccc(C(F)(F)F)cc1 [Compound 7, (S)-2-[2-Oxo-5-pyrimidin-5-yl-3-(4-trifluoromethylbenzoylamino)-2H-pyridin-1-yl]-3-phenylpropionic acid] | 82.3 µM | > 100 µM |
| CN(C)c1ccc(-c2cc(NC(=O)c3ccc(C(F)(F)F)cc3)c(=O)n([C@@H](COCc3ccccc3)C(=O)O)c2)cc1 [Compound 11, (S)-3-Benzyloxy-2-[5-(4-dimethylaminophenyl)-2-oxo-3-(4-trifluoromethyl-benzoylamino)-2H-pyridin-1-yl]propionic acid] | 76 µM | > 100 µM |
| CC(C)Oc1ccc(-c2cc(NC(=O)c3ccc(C(F)(F)F)cc3)c(=O)n([C@@H](COCc3ccccc3)C(=O)O)c2)cc1 [Compound 12, (S)-3-Benzyloxy-2-[5-(4-isopropoxyphenyl)-2-oxo-3-(4-trifluoromethyl-benzoylamino)-2H-pyridin-1-yl]propionic acid] | 67.2 µM | > 100 µM |
| O=C(Nc1cc(-c2ccc3ccccc3c2)cn([C@@H](COCc2ccccc2)C(=O)O)c1=O)c1ccc(C(F)(F)F)cc1 [Compound 13, (S)-3-Benzyloxy-2-[5-naphthalen-2-yl-2-oxo-3-(4-trifluoromethylbenzoylamino)-2H-pyridin-1-yl]propionic acid] | 48 µM | > 100 µM |
| O=C(Nc1cc(-c2ccc(-c3ccccc3)cc2)cn(C(Cc2ccc(Cl)cc2)C(=O)O)c1=O)c1ccc(C(F)(F)F)cc1 (stereo not shown) [Compound 17, 2-[5-Biphenyl-4-yl-2-oxo-3-(4-trifluoromethylbenzoylamino)-2H-pyridin-1-yl]-3-(4-chlorophenyl)propionic acid] | 2 µM | > 100 µM |
| O=C(Nc1cc(-c2ccc(Oc3ccccc3)cc2)cn(C(Cc2ccc(Cl)cc2)C(=O)O)c1=O)c1ccc(C(F)(F)F)cc1 (stereo not shown) [Compound 18, 3-(4-Chlorophenyl)-2-[2-oxo-5-(4-phenoxyphenyl)-3-(4-trifluoromethyl-benzoylamino)-2H-pyridin-1-yl]propionic acid] | 2.3 µM | > 100 µM |
| O=C(Nc1cc(-c2cccc3ccccc23)cn(C(Cc2ccc(Cl)cc2)C(=O)O)c1=O)c1ccc(C(F)(F)F)cc1 (stereo not shown) [Compound 19, 3-(4-Chlorophenyl)-2-[5-naphthalen-1-yl-2-oxo-3-(4-trifluoromethyl-benzoylamino)-2H -1-yl]propionic acid] | 5.5 µM | > 100 µM |
| O=C(Nc1cc(-c2cccc(C(F)(F)F)c2)cn(C(Cc2ccc(Cl)cc2)C(=O)O)c1=O)c1ccc(Oc2ccccc2)cc1 (stereo not shown) [Compound 23, 3-(4-Chlorophenyl)-2-[2-oxo-3-(4-phenoxybenzoylamino)-5-(3-trifluoromethyl-phenyl)-2H-pyridin-1-yl]propionic acid] | 9.8 µM | > 100 µM |
| O=C(Nc1cc(-c2cc3ccccc3o2)cn(C(Cc2ccc(Cl)cc2)C(=O)O)c1=O)c1ccc(C(F)(F)F)cc1 (stereo not shown) [Compound 25, 2-[5-Benzofuran-2-yl-2-oxo-3-(4-trifluoromethylbenzoylamino)-2H-pyridin-1-yl]-3-(4-chlorophenyl)propionic acid] | 3.7 µM | > 100 µM |
| O=C(Nc1cc(-c2cc3ccccc3s2)cn(C(Cc2ccc(Cl)cc2)C(=O)O)c1=O)c1ccc(C(F)(F)F)cc1 (stereo not shown) [Compound 26, 2-[5-Benzo[b]thiophen-2-yl-2-oxo-3-(4-trifluoromethylbenzoylamino)-2H-pyridin-1-yl]-3-(4-chlorophenyl)propionic acid] | 2.4 µM | > 100 µM |
| CC(=O)c1ccc(-c2cc(NC(=O)c3ccc(C(F)(F)F)cc3)c(=O)n(C(Cc3ccc(Cl)cc3)C(=O)O)c2)s1 (stereo not shown) [Compound 27, 2-[5-(5-Acetylthiophen-2-yl)-2-oxo-3-(4-trifluoromethylbenzoylamino)-2H-pyridin-1-yl]-3-(4-chlorophenyl)propionic acid] | 34.2 µM | > 100 µM |
| CC(=O)Nc1cccc(-c2cc(NC(=O)c3ccc(C(F)(F)F)cc3)c(=O)n(C(Cc3ccc(Cl)cc3)C(=O)O)c2)c1 (stereo not shown) [Compound 28, 2-[5-(3-Acetylaminophenyl)-2-oxo-3-(4-trifluoromethylbenzoylamino)-2H-pyridin-1-yl]-3-(4-chlorophenyl)propionic acid] | 52.4 µM | > 100 µM |
| O=C(Nc1cc(-c2ccc(O)cc2)cn(C(Cc2ccc(Cl)cc2)C(=O)O)c1=O)c1ccc(C(F)(F)F)cc1 (stereo not shown) [Compound 29, 3-(4-Chlorophenyl)-2-[5-(4-hydroxyphenyl)-2-oxo-3-(4-trifluoromethyl-benzoylamino)-2H-pyridin-1-yl]propionic acid] | 31.8 µM | > 100 µM |
| O=C(Nc1cc(C#Cc2ccccc2)cn(C(Cc2ccc(Cl)cc2)C(=O)O)c1=O)c1ccc(C(F)(F)F)cc1 (stereo not shown) [Compound 31, 3-(4-Chlorophenyl)-2-[2-oxo-5-phenylethynyl-3-(4-trifluoromethylbenzoylamino)-2H-pyridin-1-yl]propionic acid] | 34.2 µM | > 100 µM |
| O=C(Nc1cc(-c2ccccc2)cn(C(Cc2ccc(Cl)cc2)C(=O)O)c1=O)c1ccc(-c2ccccc2)cc1 (stereo not shown) [Compound 32, 2-{3-[(Biphenyl-4-carbonyl)amino]-2-oxo-5-phenyl-2H-pyridin-1-yl}-3-(4-chloro-phenyl)propionic acid] | 2.3 µM | > 100 µM |
| O=C(Nc1cc(-c2cc(F)cc(F)c2)cn(C(Cc2ccc(Cl)cc2)C(=O)O)c1=O)c1ccc(-c2ccccc2)cc1 (stereo not shown) [Compound 36, [3-[(Biphenyl-4-carbonyl)amino]-5-(3,5-difluorophenyl)-2-oxo-2H-pyridin-1-yl]-3-(4-chlorophenyl)propionic acid] | 2.4 µM | > 100 µM |
| O=C(Nc1cc(-c2ccc(Br)cc2)cn(C(Cc2ccc(Cl)cc2)C(=O)O)c1=O)c1ccc(-c2ccccc2)cc1 (stereo not shown) [Compound 37, 2-[3-[(Biphenyl-4-carbonyl)amino]-5-(4-bromophenyl)-2-oxo-2H-pyridin-1-yl]-3-(4-chlorophenyl)propionic acid] | 1.5 µM | > 100 µM |
| O=C(Nc1cc(-c2cccc3ccccc23)cn(C(Cc2ccc(Cl)cc2)C(=O)O)c1=O)c1ccc(-c2ccccc2)cc1 (stereo not shown) [Compound 46, 2-{3-[(Biphenyl-4-carbonyl)amino]-5-naphthalen-1-yl-2-oxo-2H-pyridin-1-yl}-3-(4-chlorophenyl)propionic acid] | 1.1 µM | > 100 µM |
| O=C(Nc1cc(-c2ccc(Cl)cc2)cn(C(Cc2ccc(Cl)cc2)C(=O)O)c1=O)c1ccc(Oc2ccccc2)cc1 (stereo not shown) [Compound 52, 3-(4-Chlorophenyl)-2-[5-(4-chlorophenyl)-2-oxo-3-(4-phenoxybenzoylamino)-2H-pyridin 1-yl]propionic acid] | 9 µM | > 100 µM |
| O=C(Nc1cc(-c2ccc(C(F)(F)F)cc2)cn(C(Cc2ccc(Cl)cc2)C(=O)O)c1=O)c1ccc(Oc2ccccc2)cc1 (stereo not shown) [Compound 54, 3-(4-Chlorophenyl)-2-[2-oxo-3-(4-phenoxybenzoylamino)-5-(4-trifluoromethyl-phenyl)-2H-pyridin-1-yl]propionic acid] | 16.6 µM | > 100 µM |

— patent US7087622B2, “Pyridone compounds as inhibitors of bacterial type III protein secreation systems” (priority 2004, dated 2006)
